Experiment [1] deals with Nef interaction with CD80 (Human immunodeficiency virus type 1 group M subtype B, UniProt P04601). In words: ELISA primary screen: Nef binding to CD80 cytosolic peptide. Set-up: species or system HIV-1. The note with it: CD80 pIC50 value, inhibition of Nef-CD80 binding. How it is done: (§1) Standard ELISA assay was used to validate the compounds as a primary screen. The basic steps of the assay are outlined in FIG. 1. The cytosolic peptides CD80, CD86 and CD74 are coated on a microplate, while CD80 and CD86 has higher binding capacity with the Nef protein, CD74 is non-specific peptide and is a peptide negative control for Nef binding. The coated plates are incubated overnight at 4° C. The plates were washed 5 times with PBS (0.02% Tween-20) before every step. After washing, the wells were blocked with 5% blotto and incubated at RT with shaking (650 rpm). The plates were washed 5 times with PBS (0.02%-tween20) after every step. Primary antibody […] anti-Nef raised in rabbit dissolved in 2.5% blotto (1:1000) were added and incubated on shaker for 1 hour at RT. Plate was washed and 100 μL anti rabbit raised in donkey dissolved in 2.5% blotto (1:11000) was added and incubated at RT for 45 min. Plate was washed with PBS and TMB substrate solution was added and incubated in dark for 5-10 min. The reaction was stopped with 1N H2SO4 and the absorbance was measured at 450 nm. Positive control (Nef) and Negative control (No peptide with Nef) were analysed for highest binding of Nef with peptide. The absorbance of the plates was measured at 450 nm.
(§2) A throughput screen was performed to pull out the actives. Standard quality control metrics like Z′ were used to qualify plates and Z′ scores were used to identify actives. The IC50 value of the compounds were further determined to evaluate the efficacy of the test compounds.
(§3) The IC50 values of the compounds have been illustrated in Table 1. […] Actives predominantly belong to compounds from Formula I, II and III with IC50s in nano or subnanomolar ranges were selected. Selected compounds were then screened in the cell-based assays systems.
For orientation: ELISA stands for enzyme-linked immunosorbent assay.

Experiment [2] addresses Nef interaction with CD86 (Human immunodeficiency virus type 1 group M subtype B, UniProt P04601). In words: ELISA primary screen: Nef binding to CD86 cytosolic peptide. Further details: species or system HIV-1. How it is done:
as §1, §2, §3

Experiment [3] deals with Nef mediated internalization of surface CD80/86 in B/monocyte cells. Nature of the experiment: Cell-based phenotypic screen for downregulation of surface CD80/86 (flow cytometry). The note with it: 100 μM, pre-exposed 2 hrs, then infected with non-replicative retrovirus containing NEF; flow cytometry after 48-72 hrs. The text has this: CD80 and CD86 are two major co-stimulatory cell surface proteins that are present on antigen presenting cells (APCs) and provide a co-stimulatory signal necessary for activation and survival of the naïve T cells. Both these proteins get down regulated during HIV infection via a Nef mediated pathway. It has been speculated that Nef ability to reduce CD80 and CD86 surface expression in infected cells can prevent the activation of naive T cells, necessary for an efficient recognition and elimination of the target cells. FIG. 2 illustrates that in the presence of the compounds of Formula I, Formula II or Formula III, the binding of Nef with CD80 and CD86 is inhibited thus increasing their expression. The increased expression would activate naïve T cells and aid in eliminating the infection.
Briefly monocyte/B cell lines were either delivered with Nef protein or exposed to replication deficient retrovirus and the levels of surface CD80/86 was evaluated by flow cytometry with/without compound treatment. The compounds were qualified based on the ability to reverse the down regulation of CD80/86 caused by the Nef protein. Similar quality checks were used in the secondary screen as in primary screen. Briefly, B/monocyte cells were preexposed to 100 μM of the 4 compounds for 2 hrs and then infected with non-replicative retrovirus containing NEF. The internalization of surface receptors were measured by flow cytometry after optimal infection (48-72 hrs).
(Flow cytometry measures light scatter and fluorescence of single cells or particles in a stream.)

In experiment [4] the test system is Nef mediated T cell inactivation. Nature of the experiment: T cell activation assay (IL-2 release, B-cell line co-cultured with T cell line). The format is cell-based. The note with it: 100 μM, B-cell line pre-exposed 1 hr, Nef via protein delivery agent, IL-2 by ELISA after 3 hrs. The text has this:
The appropriate cell system was designed to mimic the biology of the said interactions. FIG. 4(A) represents the principle behind the activation of naïve T cells by the antigen presenting cells (APC), including dendritic cells, B cells, monocytes, macrophages. The activation is based on CD80/86 co-stimulation along with CD3 activation by major histocompatibility complex (MHC) as evidenced by an increase in IL-2 release from the activated T cells.
Representative compounds from the Formula I, II and III were tested in the functional T cell assay and the results are as presented in FIG. 5. B-cell line was pre-exposed to 100 μM of the 4 compounds for 1 hr. The cells were washed and then Nef was introduced via protein delivery agent. The cells were washed again and co-cultured with T cell line. The IL-2 release (as an indicator of activation) was measured by ELISA after 3 hrs. Addition of Nef reduced the T cell activation by more than 50%.

The IC50 is the concentration that gives 50% inhibition. In experiment [1], `Cc1cc(C)n(-c2ncc(-c3ccc([N+](=O)[O-])cc3)cn2)n1` [Compound I1a, 2-(3,5-Dimethyl-1H-pyrazol-1-yl)-5-(4-nitrophenyl)pyrimidine] had a 50% inhibitory concentration (IC50) of 2.34 pM.

`CN(C)c1ncc(-c2ccccc2)cn1` [Compound I3a, N,N-Dimethyl-5-phenylpyrimidin-2-amine] returned an IC50 in experiment [1] of 11 pM. Consider `FC(F)(F)c1ccc(-c2cnc(N3CCOCC3)nc2)cc1` [Compound I3b, 4-[5-(4-(Trifluoromethyl)phenyl)pyrimidin-2-yl]morpholine], for which the IC50 in experiment [1] is 129 pM; in experiment [2] it was 1620 pM. For the same compound, the “reversal of Nef mediated internalization of CD80/86” value (“reversal … of CD80/86” for short) in experiment [3] is “reversal of Nef mediated internalization of CD80/86”. Moreover, the “reversal of Nef mediated inactivation of T cells (IL-2 release)” value (from here on “reversal … (IL-2 release)”) in experiment [4] was “reversed the Nef mediated inactivation”. The compound `O=C(Oc1ccccc1)n1c(=S)oc2ccccc21` [II1, Phenyl 2-thioxobenzo[d]oxazole-3(2H)-carboxylate] gave an IC50 in experiment [1] of 91.2 pM.

With `Cc1ccc(OC(=O)Nc2ccc(Cc3ccc(NC(=O)Oc4ccc(C)cc4)cc3)cc2)cc1` [II2d, Di-p-tolyl [methylenebis(4,1-phenylene)]dicarbamate], the IC50 in experiment [1] is 10500 pM; in experiment [2], 513000 pM.

Regarding `O=C(Nc1ccccc1F)Oc1ccc2ccccc2c1` [II3, Naphthalen-2-yl (2-fluorophenyl)carbamate], the IC50 in experiment [2] was 12.6 pM. Also, the “reversal … of CD80/86” value in experiment [3] is “reversal of Nef mediated internalization of CD80/86”. In addition, the “reversal … (IL-2 release)” value in experiment [4] is recorded as “reversed the Nef mediated inactivation”. With `O=C(Nc1ccc(Cl)c(Cl)c1)Nc1cc([N+](=O)[O-])ccc1OC(=O)Nc1ccc(Cl)c(Cl)c1` [II4, 2-[3-(3,4-dichlorophenyl)ureido]-4-nitrophenyl (3,4-dichlorophenyl)carbamate], the results for the IC50 in experiment [1] and in experiment [2] were 27.5 pM and 275 pM, respectively. For the compound `O=C(Oc1cccc(-c2nnco2)c1)N(c1ccccc1)c1ccccc1` [II5, 3-[(1,3,4-oxadiazol-2-yl)phenyl]diphenylcarbamate], in experiment [1], the IC50 was 2.75 pM. The same measure, in the same setting: the figure for `Cc1ccc(S(=O)(=O)NNC(=O)c2ccccc2OC(=O)Nc2ccccc2)cc1` [II7, 2-[(2-Tosylhydrazine-1-carbonyl)phenyl]phenylcarbamate] is 87.1 pM; for `CCCOC(=O)c1ccc(NC(=O)COc2cccc(C)c2)cc1` [III1e, Propyl 4-[2-(m-tolyloxy)acetamido]benzoate] it is 2340 pM. Consider `Cc1cc(C)cc(OCC(=O)Nc2ccc(C(=O)O)c(O)c2)c1` [III2a, 4-[2-(3,5-dimethylphenoxy)acetamido]-2-hydroxybenzoic acid], for which the IC50 in experiment [1] was 4.47 pM. For the same compound, the “reversal … of CD80/86” value in experiment [3] is “reversal of Nef mediated internalization of CD80/86”. Also, in experiment [4], the “reversal … (IL-2 release)” value was “reversed the Nef mediated inactivation”. In the case of `CC(Oc1ccccc1)C(=O)Nc1ccc(C(=O)O)cc1` (stereo not shown) [III2b, 4-(2-Phenoxypropanamido)benzoic acid], in experiment [1], the IC50 is 1120 pM. On the same count and under the same terms, in the case of `CCOC(=O)c1ccc(NC(=O)C(C)(C)Oc2ccc(Cl)cc2)cc1` [III2c, Ethyl 4-[2-(4-chlorophenoxy)-2-methylpropanamido]benzoate] it was 1510 pM.
